# Legend:
# [1] = system: db^Pas/db^Pas mice; test: Postprandial plasma TG response after high-fat test meal in db^Pas/db^Pas mice; assay type: in vivo, mouse; conditions: 1 μg/animal i.p.
# Protocol: FIGS. 1A and 1B show the effect of leptin on postprandial plasma TG response in db/db and db^Pas/db^Pas mice. Overnight-fasted db/db (A), db^Pas/db^Pas (B) mice were gavage-fed a high-fat test meal and immediately injected intravenously (db/db) or intraperitoneally (db^Pas/db^Pas) with saline (open symbols) or 50 μg mouse recombinant leptin (closed symbols). At the indicated times, blood was collected from the tail (A) or orbital (B) vein, plasma was separated by centrifugation, and plasma TG concentrations were determined using an enzymatic kit. Each point represents the mean±SEM (db/db: saline, n=4, leptin, n=3; db^Pas/db^Pas: saline, n=6, leptin, n=7). The average plasma lipid response in 10 control C57BL6 mice is shown as a dotted line in both A and B. In a separate experiment, shown as an inset for each strain of mice, overnight fasted db/db (●) or db^Pas/db^Pas (▪) mice were gavage-fed the test meal and immediately injected intravenously with increasing concentrations of leptin. The plasma lipid response was then measured as in A and B. The area under the response curve (AUC) was then calculated using a triangulation method on Microsoft Excel between 0 and 4 hr (mg TG·h/mL). Values are presented as % of control value (test meal alone obtained in A or B). Each point represents the mean of at least 3 mice.
# (§1) FIGS. 7A and 7B show a comparison of the effect of human and mouse leptin on LSR activity in rat hepatocytes and on postprandial increase in plasma TG in db^Pas/db^Pas mice. For FIG. 7A, primary cultures of rat hepatocytes were incubated 30 min at 37° C. without (open bar) or with 10 ng/mL recombinant human (solid bar) or mouse (hatched bar) leptin in Buffer A. Oleate (0.5 mM) and ^125I-LDL (20 μg/mL) were added and the cells were incubated 2 h at 37° C. The media were removed and were analyzed for TCA-soluble degradation products. The mean of duplicate determinations is shown. For FIG. 7B, db^Pas/db^Pas mice were given a test meal as previously described, followed immediately by injection i.p. of saline (open bar, n=4), human leptin (1 μg/animal; solid bar, n=3) or mouse leptin (0.25 μg/animal; hatched bar; n=3). The data represent the difference in TG concentrations measured at t=0 and the average of the concentrations at 3 and 4 hours. Results are shown as mean±SEM.
# Mice that were fasted for 2-3 hours were gavage-fed 300 μL of a test meal consisting of 60% fat (37% saturated, 27% mono-, and 36% polyunsaturated fatty acids), 20% protein and 20% carbohydrate, and providing 56 kcal of energy/kg (1.5 g butter, 1.5 g sunflower oil, 2.5 g nonfat dry milk, 2.5 g sucrose and 3 ml water). […] TG concentrations were determined using a commercially available enzymatic kit with controls included in each assay (Precinorm L, Roche-Boehringer Mannheim; Lyotrol N, BioMérieux).
# [2] = system: LSR; test: LSR activity (oleate-induced 125I-LDL binding, uptake, degradation) in PLC cells; assay type: cell-based, human
# Protocol: FIGS. 5A, 5B, 5C, and 5D show the stimulatory effect of leptin on LSR activity in PLC and suppression of this effect by 81B antibody. For FIGS. 5A, 5B, and 5C, cultured PLC cells were incubated at 37° C. for 30 min with increasing concentrations of human recombinant leptin in Buffer A. After this, 0.5 mM oleate and 20 μg/mL ^125I-LDL were added, and cells were further incubated at 37° C. for 2 h. Cells were washed, and the amount of oleate-induced ^125I-LDL bound (5A), internalized (5B) and degraded (5C) were measured. For FIG. 5D, PLC cells were incubated at room temperature for 30 min with 200 μg/mL anti-LSR peptide 81B or 170 antibody, followed by incubation at 37° C. for 30 min without (open bar) or with (hatched bar) 10 ng/mL human leptin. Oleate (0.5 mM) and ^125I-LDL (20 μg/mL) were added, and the monolayers were left at 37° C. for 3 h. After washing, the amount of ^125I-LDL binding was determined, and is shown here as the mean±SD of triplicate determinations.
# FIGS. 8A and 8B show the effect of mouse or human leptin on LSR activity in primary cultures of rat hepatocytes or a human liver cell line (PLC). Primary cultured rat hepatocytes were obtained commercially (In Vitro Tech). The PLC cell line was obtained from ATCC repository and maintained in culture. Rat hepatocytes 72 h after plating (8A) or confluent monolayers of PLC (8B) were incubated 30 min at 37° C. with 0 (closed bar) or 10 ng/mL of human (open bar) or mouse (hatched bar) recombinant leptin. Following this, 0.5 mM oleate and 20 μg/mL ^125I-LDL were added and the cells were further incubated for 2 h at 37° C. […] The cells were washed, and the amount of oleate-induced ^125I-LDL bound and degraded was measured as described previously (Bihain, B. E., and Yen, F. T. (1992). Free fatty acids activate a high-affinity saturable pathway for degradation of low density lipoproteins infibroblasts from a subject homozygous for familial hypercholesterolemia. Biochemistry 31, 4628-4636.
# FIGS. 35A and 35B show graphs of LSR activity and mRNA expression measured in PLC cells preincubated 24 h with leptin. In FIG. 35A, PLC monolayers were incubated 24 h at 37° C. with (o) or without (n) 200 ng/mL human recombinant leptin. After washing with PBS, cells were incubated 30 min at 37° C. with increasing concentrations of human leptin, followed by a 2 h incubation at 37° C. with 0.8 mM oleate and 20 μg/mL ^125I-LDL. Cells were washed, and the amount of oleate-induced ^125I-LDL binding was measured as described previously. Results are shown as the mean of triplicate determinations. In FIG. 35B, PLC monolayers were incubated 24 h at 37° C. with 0, 200, or 400 ng/mL human recombinant leptin. After washing with PBS, the cells were harvested. Total RNA was prepared from the cell pellets, and Northerns were performed to detect LSR mRNA, using GAPDH probe as loading control as described previously. Northern blots were scanned on the Phosphorimager (Molecular Dynamics, Sunnyvale, Calif.). Densitometric analysis of the images was performed using the software ImageQuant. Results are shown as the amount of LSR signal relative to that of GAPDH (mean±SD, n=3/condition). […]
# [3] = system: LSR; test: LSR activity (oleate-induced 125I-LDL binding, uptake, degradation) in primary cultures of rat hepatocytes; assay type: cell-based; conditions: rat hepatocytes; 50 μM
# Protocol: FIGS. 6A, 6B, and 6C show the effect of leptin on ^125I-LDL and ^125I-chylomicron binding to LSR in primary cultures of rat hepatocytes. For FIG. 6A, primary cultures of rat hepatocytes (48 hours after plating) were incubated at 37° C. for 30 min in the absence (□) or presence (▪) of 50 ng/mL leptin in Buffer A, followed by a 20 min incubation at 37° C. with 0.5 mM oleate. The cells were then washed with ice-cold PBS, precooled for 10 min, and then incubated for 1 h at 4° C. with increasing concentrations of ^125I-LDL in Buffer A. Cells were washed, were lysed in 0.1 N NaOH and were counted for radioactivity. Results are shown as the mean of duplicate determinations. For FIG. 6B, primary cultures of rat hepatocytes were incubated at 37° C. for 30 min with or without 20 ng/mL leptin followed by incubation at 37° C. for 4 h with 6 μg protein/mL ^125I-chylomicrons in the absence or presence of 0.5 mM oleate in Buffer A. The cells were then washed and the ^125I-chylomicrons bound to the cell surface were released into the media by incubation with 10 mM suramin. The media was recovered and the radioactivity was measured. Results are shown as the mean±SD of six determinations. Fir FIG. 6C, after incubation at 37° C. for 30 min with 50 ng/mL leptin, the cells were incubated at room temperature for 30 min with 200 μg IgG/mL antibodies directed against rat LSR protein or irrelevant IgG. The amount of ^125I-chylomicrons bound was determined, and results are shown as means±SD of triplicate (irrelevant) or quadruplicate (anti-LSR) determinations.
# as §1
# Cells were incubated 30 min at 37° C. with increasing concentrations of mouse (▪) or human (●) leptin peptide. Following this, 0.5 mM oleate and 20 μg/mL ^125I-LDL were added and the cells were further incubated for 2 h at 37° C. The cells were washed, and the amount of oleate-induced ^125I-LDL bound and degraded was measured as described previously (Bihain, B. E., and Yen, F. T. (1992). Free fatty acids activate a high-affinity saturable pathway for degradation of low-density lipoproteins in fibroblasts from a subject homozygous for familial hypercholesterolemia. Biochemistry 31, 4628-4636).
# FIGS. 11A and 11B show the effect of mouse leptin (FIG. 11A) or leptin peptide (FIG. 11B) on postprandial plasma TG response in ob/ob mice. […] Postprandial triglyceridemia was measured as described previously. Each point represents the mean±SEM (A: saline, n=8, leptin, n=7; leptin peptide: saline, n=8, leptin, n=8). […] Primary cultures of rat hepatocytes were incubated 30 min at 37° C. with increasing concentrations of mouse leptin peptide. Oleate (0.5 mM) and ^125I-LDL (20 μg/mL) were added and the cells were incubated 2 h at 37° C. After washing, the amount of 125I-LDL bound to the cell surface was measured as described in the Examples section herein. […]
# [4] = system: LSR; test: 125I-leptin degradation in PLC cells; assay type: cell-based, human; conditions: 50 μM
compound,measurement,setting,value
human leptin: commercial preparation of recombinant human leptin,postprandial plasma TG response,[1],slightly reduced
same,stimulation of LSR activity in human PLC cells,[2]; 10 ng/mL recombinant leptin,more efficient
same,LSR activity after long-term exposure,[2]; human liver cells (PLC) preincubated 24 h with 200 ng/mL,markedly reduced LSR activity
"C[C@@H]1C[C@@H]([C@H](O)CC2CC(=O)NC(=O)C2)C(=O)[C@@H](C)C1 [cycloheximide, reference compound]",effect on the stimulatory effect of leptin on LSR activity,[3],did not suppress the stimulatory effect of leptin
CCN(CC)CCCC(C)Nc1ccnc2cc(Cl)ccc12 (stereo not shown) [Chloroquine],increase of the amount of cell-associated 125I-leptin,[4],2-4 fold
same,inhibition of 125I-leptin degradation,[4],more than 60%
"C=C1[C@@H](C)[C@H]2[C@H](Cc3ccccc3)NC(=O)[C@]23OC(=O)/C=C/[C@H](O)CCC[C@@H](C)C/C=C/[C@H]3[C@@H]1O [cytochalasin B, reference compound]",reduction of leptin stimulation of LSR activity,[3],more than 80%

# Reference: patent US7470669B2, “Isolated polypeptide comprising a leptin fragment” (Serono Genetics Institute, S.A., priority 1999, dated 2008)
